Data as given in patent US20250195536A1, “BICYCLOOCTANE KRAS INHIBITORS” (Incyte Corporation, priority 2023, published 2025).

Key:
KRAS G12V = KRAS G12V (Homo sapiens, UniProt P01116, G12V); assay: GDP-GTP exchange assay (KRAS G12V); assay type: biochemical; conditions: bodipy-GDP/GppNHp exchange with SOS1; 3 h incubation after GppNHp-SOS1;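 further: one dagger IC50 up to 100 nM and two daggers above 100 nM up to 1 μM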
Outline: (§1)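 Bodipy-GDP-loaded KRAS (2.5 nM final) was pre-incubated 4 h at r.t. with inhibitor in Hepes pH 7.5 buffer with MgCl2, then exchange started with GppNHp (500 μM) and SOS1 (150 nM) final. Fluorescence (ex 485/em 520 nm) read after 2 h for G12D, 3 h for G12V; IC50 from four-parameter logistic fit.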

[1] = Caco2 assay (permeability, Papp A-B); assay type: in vitro ADME; conditions: human, Caco-2, absorptive direction (A-B), 50 μM test compound, 4% BSA in receiver
Outline: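 Caco-2 monolayers, 22-25 days on Transwells, TEER 300 Ω·cm^2, dosed apically with 50 μM compound in HBSS; basolateral HBSS with 4% BSA. 120 min at 37 °C, samples quantified by LCMS; Papp (A-B) from receiver-side cumulative flux slope, donor volume, surface area and initial donor amount.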

KRAS G12D = KRAS G12D (Homo sapiens, UniProt P01116, G12D); assay: GDP-GTP exchange assay (KRAS G12D); assay type: biochemical; conditions: bodipy-GDP/GppNHp exchange with SOS1; 4 h pre-incubation, 2 h reaction;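 further: one dagger IC50 up to 100 nM and two daggers above 100 nM up to 1 μM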
Outline: as §1

Sequence of KRAS G12D (P01116 1-188 isoform P01116-2 G12D): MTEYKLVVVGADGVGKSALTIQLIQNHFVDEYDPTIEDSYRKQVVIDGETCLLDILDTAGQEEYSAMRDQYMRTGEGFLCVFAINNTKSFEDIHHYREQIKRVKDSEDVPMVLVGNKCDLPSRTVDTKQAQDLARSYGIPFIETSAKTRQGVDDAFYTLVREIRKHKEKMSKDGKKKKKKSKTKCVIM
Sequence of KRAS G12V (P01116 1-188 isoform P01116-2 G12V): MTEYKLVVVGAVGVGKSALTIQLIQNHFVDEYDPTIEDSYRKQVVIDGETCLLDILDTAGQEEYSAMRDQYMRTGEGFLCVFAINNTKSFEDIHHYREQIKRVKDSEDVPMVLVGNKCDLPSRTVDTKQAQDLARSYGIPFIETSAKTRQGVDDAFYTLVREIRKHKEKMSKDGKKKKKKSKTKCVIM

| SMILES | G12V_exchange (KRAS_G12V exchange assay IC50) (KRAS G12V) | Papp A→B at 120 min, 50 μM [1] | G12D_exchange (KRAS_G12D exchange assay IC50) (KRAS G12D) |
| --- | --- | --- | --- |
| Cc1nc2c(F)c(-c3cccc(Cl)c3Cl)c(CCC#N)cc2c2c1cc([C@H]1[C@H]3C[C@H](CN(c4ncccn4)C3)N1C(=O)C1CC1)n2[C@H]1[C@H]2CN[C@@H]1C2 (atropisomer, axis not shown; (Ra)) [Example 33, 3-((Ra)-1-((1R,4R,5S)-2-azabicyclo[2.1.1]hexan-5-yl)-2-((1S,5R,7R)-6-(cyclopropanecarbonyl)-3-(pyrimidin-2-yl)-3,6-diazabicyclo[3.2.1]octan-7-yl)-7-(2,3-dichlorophenyl)-6-fluoro-4-methyl-1H-pyrrolo[3,2-c]quinolin-8-yl)propanenitrile] | † | ≤ 0.5 ×10⁻⁶ cm/s | † |
| Cc1nc2c(F)c(-c3cccc(Cl)c3Cl)c(CCC#N)cc2c2c1cc([C@H]1[C@H]3C[C@H](CN(c4ccc(C(F)(F)F)nn4)C3)N1C(=O)C1CC1)n2[C@H]1[C@H]2CN[C@@H]1C2 (atropisomer, axis not shown; (Ra)) [Example 34, 3-((Ra)-1-((1R,4R,5S)-2-azabicyclo[2.1.1]hexan-5-yl)-2-((1S,5R,7R)-6-(cyclopropanecarbonyl)-3-(6-(trifluoromethyl)pyridazin-3-yl)-3,6-diazabicyclo[3.2.1]octan-7-yl)-7-(2,3-dichlorophenyl)-6-fluoro-4-methyl-1H-pyrrolo[3,2-c]quinolin-8-yl)propanenitrile] | † | ≤ 0.5 ×10⁻⁶ cm/s | † |
| Cc1nc2c(F)c(-c3cccc(Cl)c3Cl)c(CCC#N)cc2c2c1cc([C@H]1[C@H]3C[C@H](CN(c4ccn(C)c(=O)c4)C3)N1C(=O)C1CC1)n2[C@H]1[C@H]2CN[C@@H]1C2 (atropisomer, axis not shown; (Ra)) [Example 35, 3-((Ra)-1-((1R,4R,5S)-2-azabicyclo[2.1.1]hexan-5-yl)-2-((1S,5R,7R)-6-(cyclopropanecarbonyl)-3-(1-methyl-2-oxo-1,2-dihydropyridin-4-yl)-3,6-diazabicyclo[3.2.1]octan-7-yl)-7-(2,3-dichlorophenyl)-6-fluoro-4-methyl-1H-pyrrolo[3,2-c]quinolin-8-yl)propanenitrile] | † | ≤ 0.5 ×10⁻⁶ cm/s | † |
| Cc1nc2c(F)c(-c3cccc(Cl)c3Cl)c(CCC#N)cc2c2c1cc([C@H]1[C@H]3C[C@H](CN(c4ccccn4)C3)N1C(=O)C1CC1)n2[C@H]1[C@H]2CN[C@@H]1C2 (atropisomer, axis not shown; (Ra)) [Example 36, 3-((Ra)-1-((1R,4R,5S)-2-azabicyclo[2.1.1]hexan-5-yl)-2-((1S,5R,7R)-6-(cyclopropanecarbonyl)-3-(pyridin-2-yl)-3,6-diazabicyclo[3.2.1]octan-7-yl)-7-(2,3-dichlorophenyl)-6-fluoro-4-methyl-1H-pyrrolo[3,2-c]quinolin-8-yl)propanenitrile] | † | ≤ 0.5 ×10⁻⁶ cm/s | † |
| Cc1nc2c(F)c(-c3cccc(Cl)c3Cl)c(CCC#N)cc2c2c1cc([C@H]1[C@H]3C[C@H](CN(c4ccnc(C(F)(F)F)c4)C3)N1C(=O)C1CC1)n2[C@H]1[C@H]2CN[C@@H]1C2 (atropisomer, axis not shown; (Ra)) [Example 38, 3-((Ra)-1-((1R,4R,5S)-2-azabicyclo[2.1.1]hexan-5-yl)-2-((1S,5R,7R)-6-(cyclopropanecarbonyl)-3-(2-(trifluoromethyl)pyridin-4-yl)-3,6-diazabicyclo[3.2.1]octan-7-yl)-7-(2,3-dichlorophenyl)-6-fluoro-4-methyl-1H-pyrrolo[3,2-c]quinolin-8-yl)propanenitrile] | † | ≤ 0.5 ×10⁻⁶ cm/s | † |
| Cc1nc2c(F)c(-c3cccc(Cl)c3Cl)c(CCC#N)cc2c2c1cc([C@H]1[C@H]3C[C@H](CN(c4cc(C(F)(F)F)ccn4)C3)N1C(=O)C1CC1)n2[C@H]1[C@H]2CN[C@@H]1C2 (atropisomer, axis not shown; (Ra)) [Example 39, 3-((Ra)-1-((1R,4R,5S)-2-azabicyclo[2.1.1]hexan-5-yl)-2-((1S,5R,7R)-6-(cyclopropanecarbonyl)-3-(4-(trifluoromethyl)pyridin-2-yl)-3,6-diazabicyclo[3.2.1]octan-7-yl)-7-(2,3-dichlorophenyl)-6-fluoro-4-methyl-1H-pyrrolo[3,2-c]quinolin-8-yl)propanenitrile] | † | ≤ 0.5 ×10⁻⁶ cm/s | † |
| Cc1nc2c(F)c(-c3cccc(Cl)c3Cl)c(CCC#N)cc2c2c1cc([C@H]1[C@H]3C[C@H](CN(c4cnccn4)C3)N1C(=O)C1CC1)n2[C@H]1[C@H]2CN[C@@H]1C2 (atropisomer, axis not shown; (Ra)) [Example 40, 3-((Ra)-1-((1R,4R,5S)-2-azabicyclo[2.1.1]hexan-5-yl)-2-((1S,5R,7R)-6-(cyclopropanecarbonyl)-3-(pyrazin-2-yl)-3,6-diazabicyclo[3.2.1]octan-7-yl)-7-(2,3-dichlorophenyl)-6-fluoro-4-methyl-1H-pyrrolo[3,2-c]quinolin-8-yl)propanenitrile] | † | ≤ 0.5 ×10⁻⁶ cm/s | † |
| Cc1nc2c(F)c(-c3cccc(Cl)c3Cl)c(CCC#N)cc2c2c1cc([C@H]1[C@H]3C[C@H](CN(c4ncc(C(F)(F)F)cn4)C3)N1C(=O)C1CC1)n2[C@H]1[C@H]2CN[C@@H]1C2 (atropisomer, axis not shown; (Ra)) [Example 41, 3-((Ra)-1-((1R,4R,5S)-2-azabicyclo[2.1.1]hexan-5-yl)-2-((1S,5R,7R)-6-(cyclopropanecarbonyl)-3-(5-(trifluoromethyl)pyrimidin-2-yl)-3,6-diazabicyclo[3.2.1]octan-7-yl)-7-(2,3-dichlorophenyl)-6-fluoro-4-methyl-1H-pyrrolo[3,2-c]quinolin-8-yl)propanenitrile] | † | ≤ 0.5 ×10⁻⁶ cm/s | † |
| COc1ccnc(N2C[C@@H]3C[C@H](C2)N(C(=O)C2CC2)[C@H]3c2cc3c(C)nc4c(F)c(-c5cccc(Cl)c5Cl)c(CCC#N)cc4c3n2[C@H]2[C@H]3CN[C@@H]2C3)n1 (atropisomer, axis not shown; (Ra)) [Example 42, 3-((Ra)-1-((1R,4R,5S)-2-azabicyclo[2.1.1]hexan-5-yl)-2-((1S,5R,7R)-6-(cyclopropanecarbonyl)-3-(4-methoxypyrimidin-2-yl)-3,6-diazabicyclo[3.2.1]octan-7-yl)-7-(2,3-dichlorophenyl)-6-fluoro-4-methyl-1H-pyrrolo[3,2-c]quinolin-8-yl)propanenitrile] | † | ≤ 0.5 ×10⁻⁶ cm/s | † |
